Columns and labels:
Settings in all cases: 72 h
U2OS [1] = assay: relative viability EC50 (midpoint between 100% and the lowest measured viability); higher = less toxic
Calu-3 [2] = assay: as above
Caco-2 [3] = assay: as above
HepG2 [4] = assay: as above
Vero E6 [5] = assay: as above
U2OS [6] = assay: cell viability relative to DMSO; higher = less toxic
Calu-3 [7] = assay: as above
Caco-2 [8] = assay: as above
HepG2 [9] = assay: as above
Vero E6 [10] = assay: as above
U2OS [11] = assay: drug sensitivity score (DSS) for viability; higher = more toxic; extreme values may be limits of the assay
Calu-3 [12] = assay: as above
Caco-2 [13] = assay: as above
HepG2 [14] = assay: as above
Vero E6 [15] = assay: as above

Cc1ccc2c(c1)c1c(n2CCc2ccc(C)nc2)CCN(C)C1 [latrepirdine]
relative viability EC50 (U2OS [1]): > 10 µM
relative viability EC50 (Calu-3 [2]): > 10 µM
relative viability EC50 (Caco-2 [3]): > 10 µM
relative viability EC50 (HepG2 [4]): > 10 µM
relative viability EC50 (Vero E6 [5]): > 10 µM
cell viability (U2OS [6]; 1 nM): 100%
cell viability (U2OS [6]; 10 nM): 100%
cell viability (U2OS [6]; 100 nM): 97.7%
cell viability (U2OS [6]; 1000 nM): 95.8%
cell viability (U2OS [6]; 10000 nM): 93.7%
cell viability (Calu-3 [7]; 1 nM): 97.5%
cell viability (Calu-3 [7]; 10 nM): 97.4%
cell viability (Calu-3 [7]; 100 nM): 101%
cell viability (Calu-3 [7]; 1000 nM): 103%
cell viability (Calu-3 [7]; 10000 nM): 95.4%
cell viability (Caco-2 [8]; 1 nM): 106%
cell viability (Caco-2 [8]; 10 nM): 99.4%
cell viability (Caco-2 [8]; 100 nM): 97.9%
cell viability (Caco-2 [8]; 1000 nM): 96%
cell viability (Caco-2 [8]; 10000 nM): 91%
cell viability (HepG2 [9]; 1 nM): 108%
cell viability (HepG2 [9]; 10 nM): 102%
cell viability (HepG2 [9]; 100 nM): 118%
cell viability (HepG2 [9]; 1000 nM): 98.8%
cell viability (HepG2 [9]; 10000 nM): 99.7%
cell viability (Vero E6 [10]; 1 nM): 98%
cell viability (Vero E6 [10]; 10 nM): 102%
cell viability (Vero E6 [10]; 100 nM): 104%
cell viability (Vero E6 [10]; 1000 nM): 96.5%
cell viability (Vero E6 [10]; 10000 nM): 93.6%
drug sensitivity score (U2OS [11]): 0
drug sensitivity score (Calu-3 [12]): 0
drug sensitivity score (Caco-2 [13]): 0
drug sensitivity score (HepG2 [14]): 0
drug sensitivity score (Vero E6 [15]): 0

O[C@@H](C[C@H]1c2ccccc2-c2cncn21)C1CCCCC1 [NLG919]
relative viability EC50 (U2OS [1]): > 10 µM
relative viability EC50 (Calu-3 [2]): > 10 µM
relative viability EC50 (Caco-2 [3]): > 10 µM
relative viability EC50 (HepG2 [4]): > 10 µM
relative viability EC50 (Vero E6 [5]): > 10 µM
cell viability (U2OS [6]; 1 nM): 93.1%
cell viability (U2OS [6]; 10 nM): 93%
cell viability (U2OS [6]; 100 nM): 94%
cell viability (U2OS [6]; 1000 nM): 96.7%
cell viability (U2OS [6]; 10000 nM): 90.7%
cell viability (Calu-3 [7]; 1 nM): 106%
cell viability (Calu-3 [7]; 10 nM): 111%
cell viability (Calu-3 [7]; 100 nM): 92.7%
cell viability (Calu-3 [7]; 1000 nM): 105%
cell viability (Calu-3 [7]; 10000 nM): 85.6%
cell viability (Caco-2 [8]; 1 nM): 97.6%
cell viability (Caco-2 [8]; 10 nM): 97%
cell viability (Caco-2 [8]; 100 nM): 102%
cell viability (Caco-2 [8]; 1000 nM): 95.8%
cell viability (Caco-2 [8]; 10000 nM): 86.3%
cell viability (HepG2 [9]; 1 nM): 108%
cell viability (HepG2 [9]; 10 nM): 95.9%
cell viability (HepG2 [9]; 100 nM): 102%
cell viability (HepG2 [9]; 1000 nM): 93.5%
cell viability (HepG2 [9]; 10000 nM): 94.1%
cell viability (Vero E6 [10]; 1 nM): 97.3%
cell viability (Vero E6 [10]; 10 nM): 98.5%
cell viability (Vero E6 [10]; 100 nM): 93.3%
cell viability (Vero E6 [10]; 1000 nM): 89.8%
cell viability (Vero E6 [10]; 10000 nM): 84.2%
drug sensitivity score (U2OS [11]): 0
drug sensitivity score (Calu-3 [12]): 0.1
drug sensitivity score (Caco-2 [13]): 0.4
drug sensitivity score (HepG2 [14]): 0
drug sensitivity score (Vero E6 [15]): 0.7

CCCN(CCc1cccs1)[C@H]1CCc2c(O)cccc2C1 [rotigotine]
relative viability EC50 (U2OS [1]): > 10 µM
relative viability EC50 (Calu-3 [2]): > 10 µM
relative viability EC50 (Caco-2 [3]): > 10 µM
relative viability EC50 (HepG2 [4]): > 10 µM
relative viability EC50 (Vero E6 [5]): > 10 µM
cell viability (U2OS [6]; 1 nM): 95%
cell viability (U2OS [6]; 10 nM): 98%
cell viability (U2OS [6]; 100 nM): 98.4%
cell viability (U2OS [6]; 1000 nM): 97%
cell viability (U2OS [6]; 10000 nM): 96.6%
cell viability (Calu-3 [7]; 1 nM): 105%
cell viability (Calu-3 [7]; 10 nM): 100%
cell viability (Calu-3 [7]; 100 nM): 103%
cell viability (Calu-3 [7]; 1000 nM): 100%
cell viability (Calu-3 [7]; 10000 nM): 99.6%
cell viability (Caco-2 [8]; 1 nM): 98.7%
cell viability (Caco-2 [8]; 10 nM): 95.7%
cell viability (Caco-2 [8]; 100 nM): 103%
cell viability (Caco-2 [8]; 1000 nM): 101%
cell viability (Caco-2 [8]; 10000 nM): 103%
cell viability (HepG2 [9]; 1 nM): 94.1%
cell viability (HepG2 [9]; 10 nM): 91.7%
cell viability (HepG2 [9]; 100 nM): 87%
cell viability (HepG2 [9]; 1000 nM): 107%
cell viability (HepG2 [9]; 10000 nM): 102%
cell viability (Vero E6 [10]; 1 nM): 93.4%
cell viability (Vero E6 [10]; 10 nM): 97%
cell viability (Vero E6 [10]; 100 nM): 90.1%
cell viability (Vero E6 [10]; 1000 nM): 98.5%
cell viability (Vero E6 [10]; 10000 nM): 98.7%
drug sensitivity score (U2OS [11]): 0
drug sensitivity score (Calu-3 [12]): 0
drug sensitivity score (Caco-2 [13]): 0
drug sensitivity score (HepG2 [14]): 0
drug sensitivity score (Vero E6 [15]): 0

O=P(O)(O)C(Cl)(Cl)P(=O)(O)O [clodronic-acid]
relative viability EC50 (U2OS [1]): > 10 µM
relative viability EC50 (Calu-3 [2]): > 10 µM
relative viability EC50 (Caco-2 [3]): > 10 µM
relative viability EC50 (HepG2 [4]): > 10 µM
relative viability EC50 (Vero E6 [5]): > 10 µM
cell viability (U2OS [6]; 1 nM): 99.4%
cell viability (U2OS [6]; 10 nM): 102%
cell viability (U2OS [6]; 100 nM): 105%
cell viability (U2OS [6]; 1000 nM): 101%
cell viability (U2OS [6]; 10000 nM): 103%
cell viability (Calu-3 [7]; 1 nM): 94.3%
cell viability (Calu-3 [7]; 10 nM): 97.1%
cell viability (Calu-3 [7]; 100 nM): 96.5%
cell viability (Calu-3 [7]; 1000 nM): 96.1%
cell viability (Calu-3 [7]; 10000 nM): 109%
cell viability (Caco-2 [8]; 1 nM): 98%
cell viability (Caco-2 [8]; 10 nM): 103%
cell viability (Caco-2 [8]; 100 nM): 96.3%
cell viability (Caco-2 [8]; 1000 nM): 100%
cell viability (Caco-2 [8]; 10000 nM): 100%
cell viability (HepG2 [9]; 1 nM): 99.2%
cell viability (HepG2 [9]; 10 nM): 96.6%
cell viability (HepG2 [9]; 100 nM): 98.6%
cell viability (HepG2 [9]; 1000 nM): 101%
cell viability (HepG2 [9]; 10000 nM): 102%
cell viability (Vero E6 [10]; 1 nM): 108%
cell viability (Vero E6 [10]; 10 nM): 103%
cell viability (Vero E6 [10]; 100 nM): 97.7%
cell viability (Vero E6 [10]; 1000 nM): 101%
cell viability (Vero E6 [10]; 10000 nM): 99.1%
drug sensitivity score (U2OS [11]): 0
drug sensitivity score (Calu-3 [12]): 0
drug sensitivity score (Caco-2 [13]): 0
drug sensitivity score (HepG2 [14]): 0
drug sensitivity score (Vero E6 [15]): 0

CCC(=O)O[C@H]1[C@H](O[C@@H]2[C@@H](C)[C@H](O[C@H]3C[C@@](C)(OC)[C@@H](O)[C@H](C)O3)[C@@H](C)C(=O)O[C@H](CC)[C@@](C)(O)[C@H](O)[C@@H](C)C(=O)[C@H](C)C[C@@]2(C)O)O[C@H](C)C[C@@H]1N(C)C [erythromycin-estolate]
relative viability EC50 (U2OS [1]): > 10 µM
relative viability EC50 (Calu-3 [2]): > 10 µM
relative viability EC50 (Caco-2 [3]): > 10 µM
relative viability EC50 (HepG2 [4]): > 10 µM
relative viability EC50 (Vero E6 [5]): > 10 µM
cell viability (U2OS [6]; 1 nM): 98.7%
cell viability (U2OS [6]; 10 nM): 98.4%
cell viability (U2OS [6]; 100 nM): 101%
cell viability (U2OS [6]; 1000 nM): 104%
cell viability (U2OS [6]; 10000 nM): 104%
cell viability (Calu-3 [7]; 1 nM): 91.3%
cell viability (Calu-3 [7]; 10 nM): 96%
cell viability (Calu-3 [7]; 100 nM): 91.4%
cell viability (Calu-3 [7]; 1000 nM): 88.6%
cell viability (Calu-3 [7]; 10000 nM): 99%
cell viability (Caco-2 [8]; 1 nM): 96.2%
cell viability (Caco-2 [8]; 10 nM): 102%
cell viability (Caco-2 [8]; 100 nM): 97.5%
cell viability (Caco-2 [8]; 1000 nM): 99.4%
cell viability (Caco-2 [8]; 10000 nM): 97%
cell viability (HepG2 [9]; 1 nM): 99.7%
cell viability (HepG2 [9]; 10 nM): 104%
cell viability (HepG2 [9]; 100 nM): 104%
cell viability (HepG2 [9]; 1000 nM): 93.2%
cell viability (HepG2 [9]; 10000 nM): 100%
cell viability (Vero E6 [10]; 1 nM): 96.9%
cell viability (Vero E6 [10]; 10 nM): 95.9%
cell viability (Vero E6 [10]; 100 nM): 101%
cell viability (Vero E6 [10]; 1000 nM): 96.4%
cell viability (Vero E6 [10]; 10000 nM): 102%
drug sensitivity score (U2OS [11]): 0
drug sensitivity score (Calu-3 [12]): 0
drug sensitivity score (Caco-2 [13]): 0
drug sensitivity score (HepG2 [14]): 0
drug sensitivity score (Vero E6 [15]): 0

N#Cc1cccc(C(=O)Nc2cc(-c3ccccc3)nn2-c2ccccc2)c1 [CDPPB]
relative viability EC50 (U2OS [1]): > 10 µM
relative viability EC50 (Calu-3 [2]): > 10 µM
relative viability EC50 (Caco-2 [3]): > 10 µM
relative viability EC50 (HepG2 [4]): > 10 µM
relative viability EC50 (Vero E6 [5]): > 10 µM
cell viability (U2OS [6]; 1 nM): 92.8%
cell viability (U2OS [6]; 10 nM): 97%
cell viability (U2OS [6]; 100 nM): 97.1%
cell viability (U2OS [6]; 1000 nM): 93.9%
cell viability (U2OS [6]; 10000 nM): 91.6%
cell viability (Calu-3 [7]; 1 nM): 101%
cell viability (Calu-3 [7]; 10 nM): 95%
cell viability (Calu-3 [7]; 100 nM): 101%
cell viability (Calu-3 [7]; 1000 nM): 97.2%
cell viability (Calu-3 [7]; 10000 nM): 100%
cell viability (Caco-2 [8]; 1 nM): 93.3%
cell viability (Caco-2 [8]; 10 nM): 100%
cell viability (Caco-2 [8]; 100 nM): 108%
cell viability (Caco-2 [8]; 1000 nM): 95.4%
cell viability (Caco-2 [8]; 10000 nM): 102%
cell viability (HepG2 [9]; 1 nM): 106%
cell viability (HepG2 [9]; 10 nM): 103%
cell viability (HepG2 [9]; 100 nM): 97.8%
cell viability (HepG2 [9]; 1000 nM): 107%
cell viability (HepG2 [9]; 10000 nM): 104%
cell viability (Vero E6 [10]; 1 nM): 98.5%
cell viability (Vero E6 [10]; 10 nM): 96.2%
cell viability (Vero E6 [10]; 100 nM): 98.6%
cell viability (Vero E6 [10]; 1000 nM): 99.2%
cell viability (Vero E6 [10]; 10000 nM): 103%
drug sensitivity score (U2OS [11]): 0
drug sensitivity score (Calu-3 [12]): 0
drug sensitivity score (Caco-2 [13]): 0
drug sensitivity score (HepG2 [14]): 0
drug sensitivity score (Vero E6 [15]): 0

From the supplement of paper PMC13380429
